Data as given in patent US4118561A, “7-(Substituted)-7H-pyrrolo[3,2-f]quinazoline-1,3-diamines” (priority 1977, dated 1978).
≈ marks a conversion by molar mass, not a printed value. Like-named read-outs stand apart in the source and are kept apart here.

Experiments:
K. pneumoniae 10031 = test: In vitro antibacterial activity (MIC), K. pneumoniae 10031; conditions: Klebsiella pneumoniae, 10031, 18 h
S. aureus 53-180 = test: In vitro antibacterial activity (MIC), S. aureus 53-180; conditions: Staphylococcus aureus, 53180, 18 h
S. aureus Smith = test: In vitro antibacterial activity (MIC), S. aureus Smith; conditions: Staphylococcus aureus, 18 h
[1] = tested on: lymphocytic leukemia P-388; test: Activity in mice against lymphocytic leukemia P-388; type: in vivo; conditions: Mus musculus, P388, ip, read-out: T/C
E. coli 9637 = test: In vitro antibacterial activity (MIC), E. coli 9637; conditions: Escherichia coli, 9637, 18 h
[2] = tested on: Plasmodium berghei KBG 173; test: Antimalarial blood schizonticidal test in mice; type: in vivo, Plasmodium berghei (infected ICR/HA Swiss mice); set-up: ΔMST (increase in mean survival time): unit: days; conditions: for ED100 / minimal effective dose: Plasmodium berghei, sc; for ED100: read-out: Lowest Dose Curing All Mice; for minimal effective dose: read-out: Min. Curing Dose; for Cure/Treat at Min. Curing Dose: at the Min. Curing Dose
Procedure, shortened: (§1)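 ICR/HA Swiss mice (18–22 g) infected i.p. with 4 × 10^7 P. berghei KBG 173-parasitized cells; single subcutaneous dose in peanut oil at 72 h post-infection, graded dosages. Survival followed 60 days; 60-day survivors counted cured, deaths before day 6 counted toxic; mean survival time compared with untreated controls.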

[3] = Antimalarial blood schizonticidal test in mice; type: in vivo, Plasmodium berghei (infected ICR/HA Swiss mice); set-up: ΔMST (increase in mean survival time): unit: days; conditions: mouse, in vivo, sc, single dose, read-out: Highest Non-Lethal Dose
Procedure, shortened: as §1

S. paratyphi 11737 = test: In vitro antibacterial activity (MIC), S. paratyphi 11737; type: cell-based; conditions: Salmonella enterica, 18 h
N. catarrhalis 8193 = test: In vitro antibacterial activity (MIC), N. catarrhalis 8193; conditions: 18 h
P. vulgaris 6896 = test: In vitro antibacterial activity (MIC), P. vulgaris 6896; conditions: Proteus vulgaris, 6896, 18 h
Proteus mirabilis 190 = test: In vivo antibacterial synergism (mouse), Proteus mirabilis 190; set-up: species or system Proteus mirabilis (infected mice, CD-1); conditions: mice, p.o.; for ED50: Proteus mirabilis, 190, po, 336 h; for PD50 SM/Cpd. (compound part): 0 hours, 20160 min
Experimental: (§2) The test agents are weighed, suspended in 0.5% aqueous carboxymethyl cellulose, homogenized (glass tissue grinder) and diluted according to the design of the experiment. Mice (male, 18±1 g., CD-1 strain) are pre-weighed, pooled, infected at random intraperitoneally with a 0.5 ml. standardized suspension (LD95 ±5%) of the bacterial organism in 5% gastric mucin and treated at random with single doses of the test agents either at the time of infection or six hours after infecting. The treated groups consist of ten mice per dosage level. Deaths are recorded daily for 14 days and the PD50 (mice are treated at time of infection) and CD50 (mice are treated six hours after infecting) values are calculated by the method of Reed and Muench [Amer. J. Hyg., 27, 493 (1938)].

bacterial infections = test: Synergism with sulfamethoxazole against bacterial infections in mice, oral; type: in vivo
Experimental: The invention also provides compounds which will potentiate the antibacterial effects of sulfa drugs.
as §2

Proteus vulgaris 347 = test: In vivo antibacterial synergism (mouse), Proteus vulgaris 347; set-up: species or system Proteus vulgaris (infected mice, CD-1); conditions: Proteus vulgaris, 347, po, 336 h, mice, p.o.
Experimental: as §2

Proteus mirabilis 3 = test: In vivo antibacterial synergism (mouse), Proteus mirabilis 3; set-up: species or system Proteus mirabilis (infected mice, CD-1); conditions: Proteus mirabilis, 3, po, 336 h; mice, p.o., treated 0 hours after infecting; read-out: PD50 (agent alone)
Experimental: as §2

Escherichia coli W-102 = test: In vivo antibacterial synergism (mouse), Escherichia coli W-102; set-up: species or system Escherichia coli (infected mice, CD-1); conditions: Escherichia coli, W102, po, 336 h; mice, p.o., treated 0 hours after infecting; read-out: PD50 (agent alone)
Experimental: as §2

[4] = infected mice, highest dose with no deaths for any reason
[5] = 1440 h, s.c., single dose, 60-day survivors
[6] = treated 0 hours after infecting, read-out: PD50 (agent alone)
[7] = 336 h, s.c., single dose, alive on day 14 considered cured, no 60-day data
[8] = s.c., alive on day 14 considered cured
[9] = alive on day 14 considered cured, no 60-day data
[10] = treated 6 hours after infecting, read-out: CD50 (agent alone)

Row | Compound | MIC (K. pneumoniae 10031) [µg/mL] | MIC (S. aureus 53-180) [µg/mL] | MIC (S. aureus Smith) [µg/mL] | MIC (E. coli 9637) [µg/mL] | Cure/Treat at Min. Curing Dose ([2]; s.c., 60-day survivors) | MTD [3, 4] [mg/kg] | MIC (S. paratyphi 11737) [µg/mL] | MIC (N. catarrhalis 8193) [µg/mL] | MIC (P. vulgaris 6896) [µg/mL] | response vs control in vivo at 10 mg/kg ([1]; mice, I.P., 10 mg/kg) [%] | ED100 [2, 5] [mg/kg] | minimal effective dose [2, 5] [mg/kg] | other results
1 | COc1cc(Cn2ccc3c4c(N)nc(N)nc4ccc32)cc(OC)c1OC [Example 39] | 0.122 (≈ 0.322 µM) | 0.061 (≈ 0.161 µM) | 0.122 (≈ 0.322 µM) | 0.976 (≈ 2.57 µM) | 2/5 | 160 | 3.9 (≈ 10.3 µM) | 0.0152 (≈ 0.0401 µM) | 7.81 (≈ 20.6 µM) |  |  |  | response vs control in vivo at 10 mg/kg [1]: 163%; ED100 ([2]; 1440 h): 160 mg/kg; minimal effective dose ([2]; 1440 h): 40 mg/kg; ΔMST (increase in mean survival time) ([2]; s.c., dose 20 mg. per kg.): 7.1
2 | Nc1nc(N)c2c(ccc3c2ccn3Cc2ccc3ccccc3n2)n1 [Example 50] | 0.122 (≈ 0.358 µM) | 0.488 (≈ 1.43 µM) | 0.976 (≈ 2.87 µM) | 7.81 (≈ 22.9 µM) | 2/5 | 160 | 7.81 (≈ 22.9 µM) | 0.0038 (≈ 0.0112 µM) | 7.81 (≈ 22.9 µM) | 145 | 5 | 1.25 | ΔMST (increase in mean survival time) ([2]; s.c., dose 1.25 mg. per kg.): 6.9
3 | N#Cc1cccc(Cn2ccc3c4c(N)nc(N)nc4ccc32)c1 [Example 15, 7-[(3-cyanophenyl)methyl]-7H-pyrrolo[3,2-f]-quinazoline-1,3-diamine] | 0.031 (≈ 0.0986 µM) | 0.031 (≈ 0.0986 µM) | 0.061 (≈ 0.194 µM) | 0.122 (≈ 0.388 µM) | 2/5 | 40 | 0.488 (≈ 1.55 µM) | 0.0038 (≈ 0.0121 µM) | 0.976 (≈ 3.1 µM) |  | 10 | 1.25 | ED50 (Proteus mirabilis 190; [6]): 8.8 mg/kg; PD50 SM/Cpd. (compound part) (Proteus mirabilis 190; with SM 1.56 mg. per kg.): 2.67 mg. per kg.; synergistic effect with sulfamethoxazole (bacterial infections): synergistic effect; ΔMST (increase in mean survival time) ([2]; s.c., dose 1.25 mg. per kg.): 9.6
4 | Nc1nc(N)c2c(ccc3c2ccn3Cc2ccccn2)n1 [Example 43] | 0.061 (≈ 0.21 µM) | 0.488 (≈ 1.68 µM) | 0.976 (≈ 3.36 µM) | 0.488 (≈ 1.68 µM) | 2/5 | 80 | 0.244 (≈ 0.84 µM) | < 0.0009 | 0.244 (≈ 0.84 µM) |  | 80 | 20 | response vs control in vivo at 20 mg/kg [1]: 146%; ΔMST (increase in mean survival time) ([2]; s.c., dose 20 mg. per kg.): 11.6
5 | Nc1nc(N)c2c(ccc3c2ccn3Cc2ccsc2)n1 [Example 41] | 0.061 (≈ 0.207 µM) | 0.976 (≈ 3.3 µM) | 0.976 (≈ 3.3 µM) | 0.244 (≈ 0.826 µM) |  |  | 0.976 (≈ 3.3 µM) | 0.0152 (≈ 0.0515 µM) | 1.95 (≈ 6.6 µM) | 147 |  |  | ED100 [2, 7]: 160 mg/kg; minimal effective dose [2, 7]: 20 mg/kg; Cure/Treat at Min. Curing Dose [2, 8]: 3/5; MTD [3, 9]: 320 mg/kg
6 | COc1ccc(Cn2ccc3c4c(N)nc(N)nc4ccc32)cc1OC [Example 37] | 0.061 (≈ 0.175 µM) | 0.122 (≈ 0.349 µM) | 0.244 (≈ 0.698 µM) | 0.488 (≈ 1.4 µM) | 1/5 | 80 | 1.95 (≈ 5.58 µM) | 0.0152 (≈ 0.0435 µM) | 1.95 (≈ 5.58 µM) | 174 | 20 | 10 | ΔMST (increase in mean survival time) ([2]; s.c., dose 2.5 mg. per kg.): 6.9
7 | Cc1cc(NS(=O)(=O)c2ccc(N)cc2)no1 [SM, sulfomethoxazole, reference compound] |  |  |  |  |  |  |  |  |  |  |  |  | ED50 (Proteus mirabilis 190; [10]): 14 mg/kg; ED50 (Proteus vulgaris 347; [6]): 43.2 mg/kg; ED50 (Proteus vulgaris 347; [10]): 60 mg/kg; ED50 (Proteus mirabilis 3): 9.9 mg/kg; ED50 (Escherichia coli W-102): 95 mg/kg
8 | Nc1nc(N)c2c(ccc3c2ccn3Cc2cccc([N+](=O)[O-])c2)n1 [Example 18, 7-[(3-nitrophenyl)methyl]-7H-pyrrolo[3,2-f]quinazoline-1,3-diamine] | 0.122 (≈ 0.365 µM) | 0.061 (≈ 0.182 µM) | 0.122 (≈ 0.365 µM) | 0.488 (≈ 1.46 µM) | 3/5 | 40 | 0.976 (≈ 2.92 µM) | 0.0152 (≈ 0.0455 µM) | 3.9 (≈ 11.7 µM) |  | 10 | 2.5 | response vs control in vivo at 5 mg/kg ([1]; mice, I.P., 5 mg/kg): 163%; ΔMST (increase in mean survival time) ([2]; s.c., dose 2.5 mg. per kg.): 7.4
9 | Cc1cc2c3c(N)nc(N)nc3ccc2n1Cc1ccccc1 [Example 100, 8-methyl-7-(phenylmethyl)-7H-pyrrolo[3,2-f]-quinazoline-1,3-diamine] | 0.244 (≈ 0.804 µM) | 0.976 (≈ 3.22 µM) | 1.95 (≈ 6.43 µM) | 0.488 (≈ 1.61 µM) |  |  | 3.9 (≈ 12.9 µM) | 0.122 (≈ 0.402 µM) | 15.6 (≈ 51.4 µM) |  |  |  | ED50 (Proteus mirabilis 190; [6]): 36.6 mg/kg; PD50 SM/Cpd. (compound part) (Proteus mirabilis 190; with SM 1.56 mg. per kg.): 3.11 mg. per kg.; synergistic effect with sulfamethoxazole (bacterial infections): synergistic effect
10 | Nc1cccc(Cn2ccc3c4c(N)nc(N)nc4ccc32)c1 [Example 62, 7-[(3-Aminophenyl)methyl]-7H-pyrrolo[3,2-f]quinazoline-1,3-diamine] | 0.122 (≈ 0.401 µM) | 0.244 (≈ 0.802 µM) | 0.488 (≈ 1.6 µM) | 0.244 (≈ 0.802 µM) | 3/5 | 80 | 0.976 (≈ 3.21 µM) | 0.061 (≈ 0.2 µM) | 1.95 (≈ 6.41 µM) | 165 | 20 | 5 | ΔMST (increase in mean survival time) ([2]; s.c., dose 1.25 mg. per kg.): 7.8
11 | CCOC(=O)c1ccc(Cn2ccc3c4c(N)nc(N)nc4ccc32)cc1 [Example 17] | 1.95 (≈ 5.4 µM) | 1.95 (≈ 5.4 µM) | 1.95 (≈ 5.4 µM) | 7.81 (≈ 21.6 µM) | 1/5 | 80 | > 250 | 0.488 (≈ 1.35 µM) | > 250 | 141 | 20 | 10 | ΔMST (increase in mean survival time) ([2]; s.c., dose 2.5 mg. per kg.): 6.0
12 | Cc1ccc(Cn2ccc3c4c(N)nc(N)nc4ccc32)cc1C [Example 25] | 0.488 (≈ 1.54 µM) | 0.976 (≈ 3.08 µM) | 1.95 (≈ 6.14 µM) | 1.95 (≈ 6.14 µM) |  |  | 31.3 (≈ 98.6 µM) | 0.122 (≈ 0.384 µM) | 62.5 (≈ 197 µM) | 139 |  |  | ED100 [2, 7]: 10 mg/kg; minimal effective dose [2, 7]: 5 mg/kg; Cure/Treat at Min. Curing Dose [2, 8]: 2/5; ΔMST (increase in mean survival time) ([2]; s.c., dose 2.5 mg. per kg., alive on day 14 considered cured, no 60-day data): 6.5; MTD [3, 9]: 80 mg/kg
13 | Nc1nc(N)c2c(ccc3c2ccn3-c2nccs2)n1 [Example 81, 7-(2-thiazolyl)-7H-pyrrolo[3,2-f]quinazoline-1,3-diamine] | 0.244 (≈ 0.864 µM) | 0.244 (≈ 0.864 µM) | 0.488 (≈ 1.73 µM) | 0.976 (≈ 3.46 µM) | 4/5 |  | 1.95 (≈ 6.91 µM) | 0.0152 (≈ 0.0538 µM) | 3.9 (≈ 13.8 µM) |  |  | 640 | ED50 (Proteus mirabilis 190; [6]): 22.3 mg/kg; PD50 SM/Cpd. (compound part) (Proteus mirabilis 190; with SM 1.56 mg. per kg.): > 12.5 mg. per kg.; PD50 SM/Cpd. (compound part) (Proteus mirabilis 190; with SM 3.11 mg. per kg.): 6.25 mg. per kg.; synergistic effect with sulfamethoxazole (bacterial infections): synergistic effect; ΔMST (increase in mean survival time) ([2]; s.c., dose 160 mg. per kg.): 8.3
